The results in this text go back to publication PMC7178755 (Toxicology and applied pharmacology, 2019).

The nature of this series: Plasma toxicokinetics after single intravenous administration in rats. The conditions noted are these: for AUC(0-inf) / Cmax / Vd: Hsd:Sprague Dawley SD, rat, iv, 34 mg/kg. The format is in vivo, Harlan Sprague Dawley rats.
[1] abbreviates: free BPAF, female rats, 34 mg/kg IV, mean (SE).
[2] abbreviates: free BPAF, male rats, 34 mg/kg IV, mean (SE).

With `Oc1ccc(C(c2ccc(O)cc2)(C(F)(F)F)C(F)(F)F)cc1` [BPAF, Bisphenol AF], where the note is “female”, the AUC(0-inf) (commonly the area under the concentration-time curve extrapolated to infinity) worked out at 45300 ng·h/mL; the Cmax – broadly, the peak of the concentration-time curve – came to 71.5 µg/mL; the Vd (commonly a proportionality between amount in the body and measured concentration, not a real space) was 0.697 L/kg. Also, under setting [1], the Cl1 was 0.751 (0.118) L/h/kg, the K12 is given as 0.0656 (0.0398) 1/h, the K21 is 0.141 (0.0339) 1/h and the V1 is recorded as 0.476 (0.115) L/kg. For the same compound, the V2 under setting [1] is listed as 0.222 (0.0922) L/kg. In addition, under setting [2], the Cl1 was 0.753 (0.102) L/h/kg, the Cl2 is 0.0225 (0.00797) L/h /kg, the K12 was 0.0503 (0.0151) 1/h and the K21 is given as 0.0892 (0.0147) 1/h. In addition, under setting [2], the V1 is 0.448 (0.0811) L/kg and the V2 was 0.253 (0.0785) L/kg. For the same compound, for the setting “male”, the AUC(0-inf) was 45200 ng·h/mL, the Cmax was 75.9 µg/mL and the Vd was found to be 0.7 L/kg.
